# Assay results taken from US7034042B2, “N-(4-aryloxypiperidin-1-ylalkyl) cinnamic amides as CCR33 receptor antagonists” (Novartis AG, priority 2000, dated 2006).
# Target: T1, human CCR-3 (Homo sapiens, UniProt P51677)
# T1 construct: expressed in transfected cells; membranes
# T1 sequence (P51677 1-355): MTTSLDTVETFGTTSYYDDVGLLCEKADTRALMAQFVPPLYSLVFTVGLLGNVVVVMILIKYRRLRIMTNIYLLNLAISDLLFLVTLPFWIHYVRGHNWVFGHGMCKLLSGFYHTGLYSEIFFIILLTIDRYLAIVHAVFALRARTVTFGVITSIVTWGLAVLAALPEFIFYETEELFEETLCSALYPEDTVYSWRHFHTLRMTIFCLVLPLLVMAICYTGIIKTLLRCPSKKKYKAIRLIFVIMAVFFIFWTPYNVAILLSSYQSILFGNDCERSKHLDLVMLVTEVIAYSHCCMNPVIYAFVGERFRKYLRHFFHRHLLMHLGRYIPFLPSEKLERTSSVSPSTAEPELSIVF
# Test: CCR-3 Binding Assay (inhibition of [125I]-human eotaxin binding, SPA)
# Conditions: binding of [125I]-human eotaxin to membranes of RBL-2H3 cells stably expressing CCR3; 4 hours at room temperature
# Experimental: In this assay the effect of agents of the invention on the binding of human eotaxin to human CCR-3 is determined. Recombinant cells expressing human CCR-3 are captured by wheatgerm agglutinin (WGA) polyvinyltoluidene (PVT) SPA beads (available from Amersham), through a specific interaction between the WGA and carbohydrate residues of glycoproteins on the surface of the cells. [^125I]-human eotaxin (available from Amersham) binds specifically to CCR-3 receptors bringing the [^125I]-human eotaxin in close proximity to the SPA beads. Emitted â-particles from the [^125I]-human eotaxin excite, by its proximity, the fluorophore in the beads and produce light.
# Preparation of Assay Buffer: 5.96 g HEPES and 7.0 g sodium chloride are dissolved in distilled water and 1M aqueous CaCl2 (1 mL) and 1M aqueous MgCl2 (5 mL) are added. The pH is adjusted to 7.6 with NaOH and the solution made to a final volume of 1 L using distilled water. 5 g bovine serum albumin and 0.1 g sodium azide are then dissolved in the solution and the resulting buffer stored at 4° C. A Complete™ protease inhibitor cocktail tablet (available from Boehringer) is added per 50 mL of the buffer on the day of use.
# Preparation of Homogenisation Buffer: Tris-base (2.42 g) is dissolved in distilled water, the pH of the solution is adjusted to 7.6 with hydrochloric acid and the solution is diluted with distilled water to a final volume of 1 L. The resulting buffer is stored at 4° C. A Complete™ protease inhibitor cocktail tablet is added per 50 mL of the buffer on the day of use.
# Preparation of membranes: Confluent rat basophil leukemia (RBL-2H3) cells stably expressing CCR3 are removed from tissue culture flasks using enzyme-free cell dissociation buffer and resuspended in phosphate-buffered saline. […]
# The assay is performed in a final volume of 250 μL per well of an Optiplate (ex Canberra Packard). […] The resulting scintillations are counted using a Canberra Packard TopCount, each well being counted for 1 minute. […]
row,IC50 [nM],Structure (SMILES)
1,11,"COc1ccc(C#N)cc1/C=C/C(=O)N[C@H](CC(=O)N(C)CCO)CN1CCC(Oc2ccc(F)cc2)CC1 [Example 14, (E)-3-(5-Cyano-2-methoxy-phenyl)-N-((R)-2-[4-(4-fluoro-phenoxy)-piperidin-1-yl]-1-{[(2-hydroxy-ethyl)-methyl-carbamoyl]-methyl}-ethyl)-acrylamide]"
2,2.8,"COc1ccc(C#N)cc1/C=C/C(=O)N[C@H](CNC(C)=O)CN1CCC(Oc2ccc(F)cc2)CC1 [Example 16, (E)-N-{(R)-1-(Acetylamino-methyl)-2-[4-(4-fluoro-phenoxy)-piperidin-1-yl]-ethyl}-3-(5-cyano-2-methoxy-phenyl)-acrylamide]"
3,16,"COc1ccc(C#N)cc1/C=C/C(=O)NC(CO)CN1CCC(Oc2ccc(F)cc2)CC1 (stereo not drawn) [Example 1, (E)-3-(5-Cyano-2-methoxy-phenyl)-N-{2-[4-(4-fluoro-phenoxy)-piperidin-1-yl]-1-hydroxymethyl-ethyl}-acrylamide]"
